These results are taken from patent US20200270225A1, “Chiral Diacylhydrazine Ligands for Modulating the Expression of Exogenous Genes via an Ecdysone Receptor Complex” (Intrexon Corporation, priority 2007, published 2020).

What is called melting point is the temperature, or range, at which the solid turns liquid. As usually defined, the EC50 is the midpoint of the concentration-response curve.

The target in data set [1] is T1, [V390I/Y410E/E274V]-CfEcR (Choristoneura fumiferana, UniProt O77240).
T1 construct: assay construct b835
The class given is cell-based. The note with it: R, 3T3 Cells; for RMFI (relative maximum fold induction): relative to GS-E ligand. The gist of the method:
(§1)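 NIH3T3 cells were transiently co-transfected with GAL4-DBD fused to CfEcR DEF domains (wild-type or V390I/Y410E/E274V), VP16-AD fused to chimeric human/Locusta RXR, and a GAL4-response luciferase reporter. Ligand was given at 8 doses, 0.01–33 µM, 0.33% DMSO, luciferase read at 48 h. EC50 came from fold induction over DMSO via three-parameter logistic fit; Relative Max FI was taken versus GS™-E ligand.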

In data set [2] the target is wild-type Choristoneura fumiferana EcR (D, E and F domains) (Choristoneura fumiferana, UniProt O77240). The class given is cell-based. The note with it: R, WT-CtEcR, 3T3 Cells; for RMFI (relative maximum fold induction): relative to GS-E ligand. In outline: as §1

Compound `CCC[C@@H](N(NC(=O)c1ccccc1F)C(=O)c1cc(C)cc(C)c1)C(C)(C)C` [Example 5, (R)-3,5-Dimethyl-bcnzoic acid N-(1-tert-butyl-butyl)-N′-(2-fluoro-benzoyl)-hydrazide] had a melting point of 114 to 116 °C. In data set [1], the EC50 is around 0.8 nM and the “RMFI (relative maximum fold induction)” value is recorded as 1.16. In addition, in data set [2], the EC50 is around 40 nM and the “RMFI (relative maximum fold induction)” value is listed as 0.68.
In turn, `CCC[C@@H](N(NC(=O)c1cccc2ccccc12)C(=O)c1cc(C)cc(C)c1)C(C)(C)C` [Example 23, (R)-3,5-Dimethyl-benzoic acid N-(1-tert-butyl-butyl)-N′-(naphthalene-1-carbonyl)-hydrazide] had a melting point of 173 to 174 °C. Besides, in data set [1], the EC50 was around 10 nM and the “RMFI (relative maximum fold induction)” value is 0.73. Moreover, in data set [2], the EC50 was determined as 111 nM and the “RMFI (relative maximum fold induction)” value is listed as 0.69.
For `CCC[C@@H](N(NC(=O)c1ccc2c(c1CC)OCCO2)C(=O)c1cc(C)cc(C)c1)C(C)(C)C` [Example 22, (R)-3,5-Dimethyl-benzoic acid N-(1-tert-butyl-butyl)-N′-(5-ethyl 2,3-dihydro-benzo[1,4]dioxine-6-carbonyl)-hydrazide], the melting point was 128 to 129 °C. In data set [1], a half-maximal response (EC50) required 0.064 nM and the “RMFI (relative maximum fold induction)” value was determined as 0.77. Besides, in data set [2], the EC50 is 0.266 nM and the “RMFI (relative maximum fold induction)” value turned out to be 0.78.
In turn, `CCC[C@@H](N(NC(=O)c1ccc2ccccc2c1)C(=O)c1cc(C)cc(C)c1)C(C)(C)C` [Example 24, (R)-3,5-Dimethyl-benzoic acid N-(1-tert-butyl-butyl)-N′-(naphthalene-2-carbonyl)-hydrazide] came in with a melting point of 91 °C. For the same compound, in data set [1], the EC50 was around 20 nM and the “RMFI (relative maximum fold induction)” value is recorded as 0.80. Further, in data set [2], the EC50 is around 200 nM and the “RMFI (relative maximum fold induction)” value is reported as 0.46.
With `CCC[C@@H](N(NC(=O)c1ccc(OC)c(OC)c1)C(=O)c1cc(C)cc(C)c1)C(C)(C)C` [Example 17, (R)-3,5-Dimethyl-benzoic acid N-(1-tert-butyl-butyl)-N′-(3,4-dimethoxy-benzoyl)-hydrazide], the melting point lay within 121 to 123 °C. In data set [1], the EC50 is around 300 nM and the “RMFI (relative maximum fold induction)” value came out at 0.53. In data set [2], the EC50 is around 4000 nM and the “RMFI (relative maximum fold induction)” value worked out at 0.27.
Consider `CCC[C@@H](N(NC(=O)c1cccc(C)c1)C(=O)c1cc(C)cc(C)c1)C(C)(C)C` [Example 8, (R)-3,5-Dimethyl-benzoic acid N-(1-tert-butyl-butyl)-N′-(3-methyl-benzoyl)-hydrazide], for which the melting point fell in the range of 158 to 159 °C. For the same compound, in data set [1], the concentration giving a half-maximal response (EC50) was 1.2 nM and the “RMFI (relative maximum fold induction)” value was determined as 0.92. Moreover, in data set [2], the EC50 is around 30 nM and the “RMFI (relative maximum fold induction)” value is given as 0.86.
`CCC[C@@H](N(NC(=O)c1cccc(Cl)c1)C(=O)c1cc(C)cc(C)c1)C(C)(C)C` [Example 10, (R)-3,5-Dimethyl-benzoic acid N-(1-tert-butyl-butyl)-N′-(3-chloro-benzoyl)-hydrazide] displayed a melting point of 163 to 164 °C. Also, in data set [1], the EC50 is around 3 nM and the “RMFI (relative maximum fold induction)” value came out at 0.76. Besides, in data set [2], a half-maximal effect (EC50) was put at 94.5 nM and the “RMFI (relative maximum fold induction)” value was determined as 0.87.
Turning to `CCC[C@@H](N(NC(=O)c1ccc(Cl)cc1)C(=O)c1cc(C)cc(C)c1)C(C)(C)C` [Example 14, (R)-3,5-Dimethyl-benzoic acid N-(1-tert-butyl-butyl)-N′-(4-chloro-benzoyl)-hydrazide], the melting point was 87 to 89 °C. Besides, in data set [1], the EC50 came out at 51 nM and the “RMFI (relative maximum fold induction)” value is listed as 0.74. In data set [2], the EC50 is 140 nM and the “RMFI (relative maximum fold induction)” value is 0.74.
`CCC[C@@H](N(NC(=O)c1ccc(CC)cc1)C(=O)c1cc(C)cc(C)c1)C(C)(C)C` [Example 12, (R)-3,5-Dimethyl-benzoic acid N-(1-tert-butyl-butyl)-N′-(4-ethyl-benzoyl)-hydrazide] came in with a melting point of 111 to 112 °C. For the same compound, in data set [1], the EC50 amounted to 0.56 nM and the “RMFI (relative maximum fold induction)” value stood at 0.82. In data set [2], the EC50 was 23.6 nM and the “RMFI (relative maximum fold induction)” value is 0.78.
The compound `CCC[C@@H](N(NC(=O)c1ccccc1C)C(=O)c1cc(C)cc(C)c1)C(C)(C)C` [Example 3, (R)-3,5-Dimethyl-benzoic acid N-(1-tert-butyl-butyl)-N′-(2-methyl-benzoyl)-hydrazide] gave a melting point of 137 to 138 °C. Moreover, in data set [1], the EC50 stood at 1.1 nM and the “RMFI (relative maximum fold induction)” value is reported as 0.69. For the same compound, in data set [2], it took 90 nM to reach a half-maximal effect (EC50) and the “RMFI (relative maximum fold induction)” value came to 0.75.
The like results for `CCC[C@@H](N(NC(=O)c1ccc(C)cc1)C(=O)c1cc(C)cc(C)c1)C(C)(C)C` [Example 11, (R)-3,5-Dimethyl-benzoic acid N-(1-tert-butyl-butyl)-N′-(4-methyl-benzoyl)-hydrazide] were, in that order, 60 to 62 °C, around 1 nM, 0.90, around 20 nM and 0.74.
The like results for `CCC[C@@H](N(NC(=O)c1ccccc1)C(=O)c1cc(C)cc(C)c1)C(C)(C)C` [Example 2, (R)-3,5-Dimethyl-benzoic acid N′-benzoyl-N-(1-tert-butyl-butyl)-hydrazide] were, in that order, 66 to 68 °C, 2.2 nM, 0.91, around 30 nM and 0.74.
`CCC[C@@H](N(NC(=O)c1ccc(OC)cc1)C(=O)c1cc(C)cc(C)c1)C(C)(C)C` [Example 13, (R)-3,5-Dimethyl-benzoic acid N-(1-tert-butyl-butyl)-N′-(4-methoxy-benzoyl)-hydrazide] returned a melting point of 65 to 67 °C. In addition, in data set [1], the EC50 is 1.4 nM and the “RMFI (relative maximum fold induction)” value was 0.68. Further, in data set [2], a half-maximal effect (EC50) was put at 42.3 nM and the “RMFI (relative maximum fold induction)” value is recorded as 0.73.
